Usually IC50 stands for the point on the concentration scale where inhibition reaches its midpoint. A higher IC50 goes with lower potency.

One data set has as its system CaCo-2 cells. Kind of data set: Inhibition of proliferation of CaCo-2 cells (WST-1, Example 8). Type of data set: cell-based. To be noted: Homo sapiens, 12 hours; for inhibition at 5 µM: read-out: % Inhibition of Proliferation at 5 μM Compound. The protocol: The effect of N,N,-diethyl-8,8-dipropyl-2-azaspiro[4,5]decane-2-propanamine dimaleate (Compound 1) and other analogs (structures shown in Table 7) on proliferation of CaCo-2, a human colon carcinoma cell line, were evaluated in the following manner. Cell proliferation was measured by WST-1 dye conversion to Formazan assay using a proliferation kit from BioVision, CA. The procedure used was essentially the same as described in the manufacture's instructions. Briefly, cells were grown for 7 days until they formed semi-confluent monolayers. On day 7, cells were trypsinized and re-suspended in 96-well plates at a concentration of approximately 50,000 cells/well. […] A solution of 10 μl of WST-1 dye per well was added and plates were read after 4 hours at 440 and 600 nm using an ELISA plate reader. The absorbance at 440-600 nm is directly proportion to the number of proliferating cells. All samples were measured in duplicate and results were expressed as an average of two determinations.
Background: Formazan colour is commonly taken as a measure of viable cells.

The subject of data set [1] is chorioallantoic membrane (CAM). Kind of data set: Anti-angiogenesis CAM assay. It is filed as in vivo, White Leghorn eggs. To be noted: Dose per egg 100 μg; 48 hour exposure; ten eggs. The protocol: The dosing was effected by pipetting 40 μl of the indicated solution onto a 13 mm round Thermanox® coverslip and allowing it to air dry. After the material appeared dry, the coverslip was placed onto the chorioallantoic membrane (CAM) of each egg insuring contact of the dried test article with the CAM. After dosing, the eggs were returned to the incubator for approximately 48 hours. Following the 48 hour exposure period, the eggs were removed from the incubator, observed for viability, and the exposed area under the coverslip was examined for loss of vasculature.

On to `CN(C)CCCN1CCC2(CCC(C(C)(C)C)CC2)CC1` [A], for which, in the data set with CaCo-2 cells, the inhibition at 5 µM was 45% and the half-maximal inhibitory concentration (IC50) is approximately 20 µM.
For `CN(C)CCCN1CCC2(CCOCC2)C1` [B], in that order: 0% and more than 20 µM.
On the same counts, the results for `CN(C)CCCN1CCC2(CCC(C(C)(C)C)CC2)C1` (stereo not shown) [Compound C] are 15% and more than 20 µM.
For `CN(C)CCCN1CCC2(CCCCC2)CC1` [D], in that order: 0% and more than 20 µM.
With `CN(C)CCCN1CCC2(CCC(C)(C)CC2)C1` [E], in the data set on CaCo-2 cells, the inhibition at 5 µM turned out to be 0% and the IC50 was more than 20 µM.
For `CCC1(CC)CCC2(CCN(CCCN(C)C)C2)CC1` [F], in that order: 35% and more than 20 µM.
On the same counts, the results for `CCCCCC1(CCCCC)CCC2(CCN(CCCN(C)C)CC2)CC1` [G] are 86% and approximately 2.5 µM.
Consider `CCCCCCCCCCC1CCC2(CC1)CCN(CCCN(C)C)C2` (stereo not shown) [H], for which, in the data set on CaCo-2 cells, the inhibition at 5 µM is 73% and the IC50 was approximately 3.5 µM.
On the same counts, the results for `CCCCC1(CCCC)CCC2(CCN(CCCN(C)C)C2)CC1` [J] are 84% and approximately 2.5 µM.
Consider `CCCCC1(CC)CCC2(CCN(CCCN(C)C)C2)CC1` (stereo not shown) [K], for which, in the data set on CaCo-2 cells, the inhibition at 5 µM was 81% and the IC50 is approximately 2.5 µM.
For `CCCC1(CCC)CCC2(CCN(CCCCCCN(C)C)C2)CC1` [L], in that order: 76% and approximately 3.5 µM.
On the same counts, the results for `CCCC1(CCC)CCC2(CCN(CCCN3CCCCC3)C2)CC1` [M] are 67% and approximately 4 µM.
In the case of `O=C1CCC(N2C(=O)c3ccccc3C2=O)C(=O)N1` (stereo not shown) [Thalidomide, reference compound], the “Dead Eggs” value in data set [1] worked out at 0.

For the origin of these results see patent US20050250801A1, “Method of treating cancer with azaspirane compositions” (priority 2003, published 2005).
